From patent US20260116867A1, “PROTEOLYSIS TARGETING CHIMERAS FOR HUMAN PREGNANE X RECEPTOR AND FOR DEGRADATION OF GSPT1” (ST. JUDE CHILDREN'S RESEARCH HOSPITAL, priority 2022, published 2026)
Entries after “also recorded” stand apart in the source; their conditions may differ.

Key:
GSPT1 = target: T1, GSPT1 (Homo sapiens, UniProt P15170+Q96SW2); experiment: Western blot of GSPT1 protein in SNU—C4 3xFLAG-PXR KI cells; assay type: cell-based; details: for GSPT1 Loss at 10 μM (% ± SD): 10 μM compound, calculated from western blots FIG. 9A; for GSPT1 degradation (in words): western blot, SNU—C4 3xFLAG-PXR KI cells
T1 construct: endogenous in cells
Description: (§1) The following day, DMSO or compounds were added to result in 0.5% DMSO and the indicated compound concentrations, and cells were incubated for the indicated time points. Cells were lysed and subjected to western blotting as above using antibodies against FLAG (Sigma-Aldrich, cat. #F3165, 1:2,000 dilution), GSPT1 (Abcam, cat. #ab126090, 1:4,000 dilution), and R-Actin (Cell Signaling Technology, cat. #4967, 1:2,000 dilution).

His-CRBN/DDB1 = target: T2, His-CRBN/DDB1 (Homo sapiens, UniProt Q96SW2); experiment: TR-FRET CRBN competitive binding assay (BODIPY FL thalidomide probe); details: for CRBN binding (in words): FIG. 9D; for EC50: TR-FRET competitive binding, derived from FIG. 9D, read-out: CRBN Binding EC50 ± SD
T2 construct: made in house; host or cells: Sf9 insect cells (baculovirus)
Description: The pFastBacDual-6xHis-CRBN/DDB1 plasmid was cloned by GenScript and used for baculoviral expression of His-CRBN and untagged DDB1. Protein was expressed and purified essentially as described previously. The bacmid was produced in MAX Efficiency DH10Bac Competent Cells (Thermo Fisher Scientific) according to the manufacturer's instructions. To generate the P1 virus, 1×10^6 Sf9 cells were plated in each well of a six-well plate in 2 mL Sf-900 III SFM and transfected with 7 μg bacmid using Cellfectin II reagent (Thermo Fisher Scientific). After 6 h at 27° C., the media was replaced with 2 mL fresh Sf-900 III SFM. After three days, the supernatant was collected, centrifuged at 500×g for 5 min to remove cells and debris, transferred to new tubes, and stored at 4° C. To generate P2 virus, 2 mL P1 virus was added to 1×10^8 Sf9 cells in 50 mL Sf-900 III SFM and shaken at 27° C. for three days. The supernatant was collected and clarified as above. For protein expression, 5 mL P2 virus was added to each liter of Sf cells (2×10^6 cells/mL) and shaken at 27° C. for three days. Cells containing expressed protein were pelleted by centrifugation at 500×g for 5 min, the supernatant was removed, and pellets were stored at −80° C. until processing. […] The suspension was incubated on ice for 1 h, gently sonicated, and centrifuged for 1 h at 40,000×g at 4° C. The supernatant was applied to Ni-NTA Superflow resin (QIAGEN) equilibrated with lysis buffer. The resin was washed with 10 column volumes (CV) of lysis buffer, and proteins were eluted with 10 CV lysis buffer containing 500 mM imidazole. The solution was diluted to 200 mM NaCl using lysis buffer without NaCl and applied to a HiTrap ANX FF (High Sub) column (Cytiva) equilibrated with ANX binding buffer [50 mM Tris (pH 7.5), 200 mM NaCl, 3 mM TCEP]. The column was washed with 10 CV ANX binding buffer followed by 10 CV ANX wash buffer [50 mM Bis-Tris (pH 6.0), 200 mM NaCl, 3 mM TCEP]. A 20 CV linear gradient was then immediately applied from ANX binding buffer to ANX binding buffer containing 1 M NaCl using an AKTA avant chromatography system (Cytiva). The purest fractions were applied to a HiLoad 26/600 Superdex 200 pg size exclusion column equilibrated with 10 mM HEPES (pH 7.0), 240 mM NaCl, and 3 mM TCEP. Pure protein was concentrated to 20-30 mg/mL in Pierce PES Protein Concentrators (Thermo Fisher Scientific), flash frozen in liquid nitrogen, and stored at −80° C.
The assay buffer composition was 50 mM Tris (pH 7.5), 0.1% Triton X-100, 0.01% bovine serum albumin, and 1 mM DTT. […] Lastly, 5 μL/well of 8 nM Tb-anti-His and 8 nM His-CRBN/DDB1 in assay buffer was added. […] The plates were then protected from light exposure and incubated for 60 minutes at room temperature (RT). After incubation, the TR-FRET signal from each well was collected with a PHERAstar FS Microplate Reader (BMG Labtech). The percent inhibition for each well was calculated using equation 2: […]

PXR [1] = target: T3, PXR (Homo sapiens, UniProt O75469); experiment: Western blot of endogenous 3xFLAG-PXR protein in SNU—C4 3xFLAG-PXR KI cells; assay type: cell-based; parameters: To assess SJPYT-195 activity against endogenous PXR, CRISPR-Cas9 was used; endogenous in cells; details: western blot, SNU—C4 3xFLAG-PXR KI cells
T3 sequence (O75469 1-434): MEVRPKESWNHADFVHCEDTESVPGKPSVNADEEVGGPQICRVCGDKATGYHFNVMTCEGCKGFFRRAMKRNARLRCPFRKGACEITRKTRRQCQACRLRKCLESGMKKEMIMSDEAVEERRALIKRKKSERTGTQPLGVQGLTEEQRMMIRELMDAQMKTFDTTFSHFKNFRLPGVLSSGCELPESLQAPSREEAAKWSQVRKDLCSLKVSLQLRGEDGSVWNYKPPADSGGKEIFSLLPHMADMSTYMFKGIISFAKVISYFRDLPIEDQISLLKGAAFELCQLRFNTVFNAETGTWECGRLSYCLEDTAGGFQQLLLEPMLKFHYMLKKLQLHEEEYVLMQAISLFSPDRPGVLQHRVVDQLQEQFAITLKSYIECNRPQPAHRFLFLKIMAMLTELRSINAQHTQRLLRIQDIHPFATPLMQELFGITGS
Description: as §1

PXR [2] = target: T3, PXR; experiment: cell-based hPXR inverse agonistic assay; details: for inhibition at 10 µM: read-out: Inverse agonist (% inhibition at 10 μM); for IC50: read-out: Inverse agonist (IC50/μM)
PXR [3] = target: T3, PXR; experiment: cell-based hPXR antagonistic assay; details: for inhibition at 10 µM: read-out: Antagonist (% inhibition at 10 μM); for IC50: read-out: Antagonist (IC50/μM)
PXR [4] = target: T3, PXR; experiment: hPXR binding assay; details: for inhibition at 10 µM: read-out: Binding (% inhibition at 10 μM)
PXR [5] = target: T3, PXR; experiment: cell-based hPXR agonistic assay; details: for Agonist (% activation at 10 μM): rifampicin at 10 μM as 100% activation, DMSO (0.3%) as 0%

SMILES	GSPT1 Loss at 10 μM (% ± SD) (GSPT1) [%]	GSPT1 degradation (in words) (GSPT1)	CRBN binding (in words) (His-CRBN/DDB1)	inhibition at 10 µM (PXR [2]) [%]	IC50 (PXR [2]) [µM]	other results
CC(C)(C)c1cc(N)cc(Oc2cccc3c2C(=O)N(C2CCC(=O)NC2=O)C3=O)c1 (stereo not drawn) [Compound A1, 4-(3-amino-5-(tert-butyl)phenoxy)-2-(2,6-dioxopiperidin-3-yl)isoindoline-1,3-dione]	23 ± 2.8	lost the degradation activity of GSPT1	maintained strong CRBN binding	–	–	–
CC(=O)Nc1cc(Nc2cccc3c2C(=O)N(C2CCC(=O)NC2=O)C3=O)cc(C(C)(C)C)c1 (stereo not drawn) [Compound A3, N-(3-(tert-butyl)-5-((2-(2,6-dioxopiperidin-3-yl)-1,3-dioxoisoindolin-4-yl)amino)phenyl)acetamide]	15 ± 21	–	–	–	–	PXR protein level (in words) (PXR [1]): did not affect either PXR or GSPT1 levels; GSPT1 degradation (in words) (GSPT1; listed as SJPYT-231): did not affect either PXR or GSPT1 levels; also recorded: lost the degradation activity of GSPT1; CRBN binding (in words) (His-CRBN/DDB1; listed as SJPYT-231): strongest CRBN binding of all tested compounds; also recorded: maintained strong CRBN binding; also recorded: higher affinity CRBN binder than thalidomide or pomalidomide
COc1ccc(OC)c(-n2nnc(C(=O)Nc3cc(OC(=O)CNc4cccc5c4C(=O)N(C4CCC(=O)NC4=O)C5=O)cc(C(C)(C)C)c3)c2C)c1 (stereo not drawn) [Compound M7, 3-(tert-butyl)-5-(1-(2,5-dimethoxyphenyl)-5-methyl-1H-1,2,3-triazole-4-carboxamido)phenyl (2-(2,6-dioxopiperidin-3-yl)-1,3-dioxoisoindolin-4-yl)glycinate]	46 ± 1.5	only weakly degraded GSPT1	retained strong binding of CRBN	103	0.2 ± 0.038	inhibition at 10 µM (PXR [3]): 71%; IC50 (PXR [3]): 1.38 ± 0.47 µM
COc1ccc(OC)c(-n2nnc(C(=O)Nc3cc(NC(=O)CNc4cccc5c4C(=O)N(C4CCC(=O)NC4=O)C5=O)cc(C(C)(C)C)c3)c2C)c1 (stereo not drawn) [Compound M8, N-(3-(tert-butyl)-5-(2-((2-(2,6-dioxopiperidin-3-yl)-1,3-dioxoisoindolin-4-yl)amino)acetamido)phenyl)-1-(2,5-dimethoxyphenyl)-5-methyl-1H-1,2,3-triazole-4-carboxamide]	89 ± 3.1	strong GSPT1 degradation	retained strong binding of CRBN	19	13.2 ± 1.28	–
COc1ccc(OC)c(-n2nnc(C(=O)Nc3cc(OCC(=O)Nc4cccc5c4C(=O)N(C4CCC(=O)NC4=O)C5=O)cc(C(C)(C)C)c3)c2C)c1 (stereo not drawn) [Compound M9, N-(3-(tert-butyl)-5-(2-((2-(2,6-dioxopiperidin-3-yl)-1,3-dioxoisoindolin-4-yl)amino)-2-oxoethoxy)phenyl)-1-(2,5-dimethoxyphenyl)-5-methyl-1H-1,2,3-triazole-4-carboxamide]	20 ± 4.8	–	greatly reduced CRBN binding	–	–	EC50 (His-CRBN/DDB1): > 333 nM
COc1ccc(OC)c(-n2nnc(C(=O)Nc3cc(OCCNc4cccc5c4C(=O)N(C4CCC(=O)NC4=O)C5=O)cc(C(C)(C)C)c3)c2C)c1 (stereo not drawn) [Compound M10, N-(3-(tert-butyl)-5-(2-((2-(2,6-dioxopiperidin-3-yl)-1,3-dioxoisoindolin-4-yl)amino)ethoxy)phenyl)-1-(2,5-dimethoxyphenyl)-5-methyl-1H-1,2,3-triazole-4-carboxamide]	72 ± 2.3	strong GSPT1 degradation	retained strong binding of CRBN	128	0.042 ± 0.0085	inhibition at 10 µM (PXR [3]): 102%; IC50 (PXR [3]): 0.23 ± 0.023 µM
COc1ccc(OC)c(-n2nnc(C(=O)Nc3cc(NCCNc4cccc5c4C(=O)N(C4CCC(=O)NC4=O)C5=O)cc(C(C)(C)C)c3)c2C)c1 (stereo not drawn) [Compound M11, N-(3-(tert-butyl)-5-((2-((2-(2,6-dioxopiperidin-3-yl)-1,3-dioxoisoindolin-4-yl)amino)ethyl)amino)phenyl)-1-(2,5-dimethoxyphenyl)-5-methyl-1H-1,2,3-triazole-4-carboxamide]	63 ± 13	strong GSPT1 degradation	retained strong binding of CRBN	135	0.0079	IC50 (PXR [4]): 0.67 ± 0.014 µM; inhibition at 10 µM (PXR [4]): 61%; inhibition at 10 µM (PXR [3]): 109%; IC50 (PXR [3]): 0.026 ± 0.0008 µM
COc1ccc(OC)c(-n2nnc(C(=O)Nc3cc(C(C)(C)C)ccc3OCCCCN3C(=O)CCC(N4Cc5c(N)cccc5C4=O)C3=O)c2C)c1 (stereo not drawn) [Compound N1, N-(2-(4-(3-(4-amino-1-oxoisoindolin-2-yl)-2,6-dioxopiperidin-1-yl)butoxy)-5-(tert-butyl)phenyl)-1-(2,5-dimethoxyphenyl)-5-methyl-1H-1,2,3-triazole-4-carboxamide]	–	–	–	–	–	Agonist (% activation at 10 μM) (PXR [5]): (55 ± 5)%; EC50 (PXR [5]; NA = no value within concentration range tested (highest 30 μM), read-out: Agonist (EC50/μM)): 0.75 ± 0.11 µM; IC50 (PXR [4]): 1.27 ± 0.48 µM; inhibition at 10 µM (PXR [4]): 34%
COc1ccc(OC)c(-n2nnc(C(=O)Nc3cc(OCCCCCCCCN4C(=O)CCC(N5C(=O)c6cccc(N)c6C5=O)C4=O)cc(C(C)(C)C)c3)c2C)c1 (stereo not drawn) [Compound N5, N-(3-((8-(3-(4-amino-1,3-dioxoisoindolin-2-yl)-2,6-dioxopiperidin-1-yl)octyl)oxy)-5-(tert-butyl)phenyl)-1-(2,5-dimethoxyphenyl)-5-methyl-1H-1,2,3-triazole-4-carboxamide]	–	–	–	–	–	Agonist (% activation at 10 μM) (PXR [5]): (81 ± 5)%
CO[C@H]1/C=C/O[C@@]2(C)Oc3c(C)c(O)c4c(O)c(c(/C=N/N5CCN(C)CC5)c(O)c4c3C2=O)NC(=O)/C(C)=C\C=C\[C@H](C)[C@H](O)[C@@H](C)[C@@H](O)[C@@H](C)[C@H](OC(C)=O)[C@@H]1C [Rifampicin, reference compound]	–	–	–	–	–	Agonist (% activation at 10 μM) (PXR [5]): (100 ± 2)%
COc1ccc(OC)c(-n2nnc(S(=O)(=O)c3ccc(C(C)(C)C)cc3)c2C)c1 [SPA70, reference compound]	–	–	–	–	–	EC50 (His-CRBN/DDB1): > 3000 nM
